In the supplement of paper PMC10307832:

How the values were obtained:
Assay in all cases: relative viability (nuclei count vs DMSO), 5 days (fraction); higher = more cells survive
[1] = compound: Cn1c(=O)n(-c2ccc(C(C)(C)C#N)cc2)c2c3cc(-c4cnc5ccccc5c4)ccc3ncc21 [Dactolisib] + CC1(C)CCC(c2ccc(Cl)cc2)=C(CN2CCN(c3ccc(C(=O)NS(=O)(=O)c4ccc(N[C@H](CCN5CCOCC5)CSc5ccccc5)c(S(=O)(=O)C(F)(F)F)c4)cc3)CC2)C1 [Navitoclax] (partner 0.5 µM)
In short: (§1)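 Values are medians from duplicate plates. Each reflects relative viability, defined as the nuclei count of treated wells over that of vehicle wells. Lung cancer cell lines in 1536-well plates were pin-tool dosed one day after seeding with one drug alone or with a fixed anchor-drug dose plus five library-drug doses (not always all listed) in √10 steps, then fixed, stained and imaged at 4× after 5 days.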

[2] = compound: Cn1c(=O)n(-c2ccc(C(C)(C)C#N)cc2)c2c3cc(-c4cnc5ccccc5c4)ccc3ncc21 [Dactolisib] + C[C@]1(O)C[C@@H](c2nc(-c3ccc4ccc(-c5ccccc5)nc4c3)c3c(N)nccn32)C1 [Linsitinib] (partner 1 µM)
In short: as §1

[3] = compound: C1CCC(CC1)N(CCNCCC2=C3C(=C(C=C2)O)NC(=O)CO3)C(=O)CCNCCC4=CC(=C(C=C4)Cl)Cl [AZ505] + Cc1cc(Nc2cc(N3CCN(C)CC3)nc(Sc3ccc(NC(=O)C4CC4)cc3)n2)n[nH]1 [Tozasertib] (partner 0.1 µM)
In short: as §1

[4] = compound: Cn1c(=O)n(-c2ccc(C(C)(C)C#N)cc2)c2c3cc(-c4cnc5ccccc5c4)ccc3ncc21 [Dactolisib] + CC(=O)c1c(C)c2cnc(Nc3ccc(N4CCNCC4)cn3)nc2n(C2CCCC2)c1=O [Palbociclib] (partner 0.5 µM)
In short: as §1

Cell Line	relative viability ([1]; first compound 0.002 µM)	relative viability ([1]; first compound 0.006325 µM)	relative viability ([1]; first compound 0.02 µM)	relative viability ([1]; first compound 0.06325 µM)	relative viability ([1]; first compound 0.2 µM)	relative viability ([2]; first compound 0.002 µM)	relative viability ([2]; first compound 0.006325 µM)	relative viability ([2]; first compound 0.02 µM)	relative viability ([2]; first compound 0.06325 µM)	relative viability ([2]; first compound 0.2 µM)	relative viability ([3]; first compound 0.08 µM)	relative viability ([3]; first compound 0.253 µM)	relative viability ([3]; first compound 0.8 µM)	relative viability ([3]; first compound 2.53 µM)	relative viability ([3]; first compound 8 µM)	relative viability ([4]; first compound 0.002 µM)	relative viability ([4]; first compound 0.006325 µM)	relative viability ([4]; first compound 0.02 µM)	relative viability ([4]; first compound 0.06325 µM)	relative viability ([4]; first compound 0.2 µM)
NCI-H838	1.13	0.776	0.474	0.205	0.251	0.915	0.444	0.652	0.226	0.22	0.253	0.286	0.257	0.268	0.265	0.2	0.186	0.151	0.142	0.117
NCI-H1755	1.09	0.943	0.928	0.519	0.467	0.983	0.971	0.989	0.763	0.622	0.526	0.595	0.602	0.646	0.564	0.482	0.423	0.42	0.388	0.38
HCC-78	0.784	0.791	0.543	0.288	0.251	0.476	0.457	0.383	0.223	0.207	0.351	0.65	0.381	0.312	0.345	0.46	0.453	0.479	0.475	0.441
IA-LM	0.819	0.579	0.564	0.116	0.0832	0.681	0.613	0.6	0.124	0.206										
NCI-H322M	1.22	1.17	1.16	0.733	0.677	0.939	0.826	0.84	0.586	0.442	0.451	0.478	0.467	0.484	0.465	0.487	0.476	0.415	0.387	0.415
NCI-H3122	1.02	1.05	0.993	0.809	0.491	0.982	0.993	0.989	0.671	0.53	0.381	0.401	0.436	0.355	0.411	0.18	0.198	0.173	0.16	0.137
NCI-H650						1.26	0.752	0.697	0.576	0.415	0.733	0.705	0.729	0.726	0.736	0.387	0.33	0.334	0.279	0.204
NCI-H1792	0.823	0.692	0.582	0.381	0.181	0.57	0.483	0.382	0.112	0.0865						0.676	0.651	0.568	0.34	0.271
ChaGo-K-1	0.92	1.03	0.975	1.13	0.765						0.2	0.232	0.244	0.216	0.238	0.93	0.958	0.88	0.84	0.85
NCI-H2342											0.441	0.625	0.559	0.509	0.618	0.556	0.535	0.505	0.454	0.466
NCI-H1299	1.06	1.1	1.08	0.986	1.03	0.979	0.929	1.01	0.573	0.608										
NCI-H1650	1.18	0.998	0.83	0.337	0.416						0.313	0.448	0.496	0.369	0.321	0.357	0.348	0.298	0.191	0.142
SW 900											0.439	0.665	0.713	0.614	0.544	0.683	0.46	0.45	0.248	0.199
NCI-H596	0.894	0.852	0.701	0.416	0.171	1.18	0.935	0.924	0.523	0.387	0.845	0.894	0.708	0.821	0.726					
NCI-H1648											0.469	0.581	0.408	0.562	0.703	0.284	0.283	0.231	0.206	0.215
NCI-H522											0.459	0.552	0.488	0.603	0.674	0.924	1	0.99	0.754	0.674
A549	1.29	1.05	0.706	0.248	0.104	0.578	0.58	0.465	0.194	0.125										
NCI-H2170	0.58	0.512	0.473	0.217	0.198						0.845	0.715	0.641	0.741	0.766	0.379	0.385	0.316	0.205	0.167
NCI-H661						0.453	0.454	0.505	0.223	0.23	0.356	0.377	0.351	0.32	0.367	0.415	0.379	0.368	0.342	0.332
NCI-H1563						1.25	1.11	1.02	0.62	0.654										
ABC-1						0.948	0.614	0.694	0.363	0.326	0.116	0.185	0.168	0.168	0.167	0.651	0.48	0.514	0.514	0.481
LCLC-103H						1.06	1.07	0.934	0.661	0.531	0.508	0.504	0.434	0.461	0.459	0.483	0.494	0.45	0.414	0.373
